Reference: patent publication US8742135B1, “Compound amycolamicin, method for producing the same, and use of the same” (Microbial Chemistry Research Foundation, priority 2009, dated 2014)

What was measured:
Type in all cases: cell-based
H. infulenzae T196 = assay: MIC, Muller Hinton agar with sheep blood, 5% CO2 (Test Example 2); details: Haemophilus, Muller Hinton agar + sheep blood 5% by volume
[1] = system: Streptococcus pneumoniae S-223; assay: as above; details: S223, Muller Hinton agar + sheep blood 5% by volume
[2] = system: Mannheimia haemolytica N791; assay: MIC, brain heart infusion agar, multiple dilution method (Test Example 3); details: brain heart infusion agar medium
Experimental: (§1) According to the standard method of Japanese Society of Chemotherapy, the amycolamicin was measured for antimicrobial spectrum against bacteria causing pneumonia in domestic livestock in the brain heart infusion agar medium by the multiple dilution method.

P. multocida M-17 = assay: as above; details: Pasteurella multocida, M17, brain heart infusion agar medium
Experimental: as §1

[3] = system: Pasteurella multocida No. 6; assay: as above; details: brain heart infusion agar medium
Experimental: as §1

M. haemolytica N811 = assay: as above; details: Mannheimia haemolytica, brain heart infusion agar medium
Experimental: as §1

P. multocida TS-8 = assay: as above; details: Pasteurella multocida, TS8, brain heart infusion agar medium
Experimental: as §1

P. multocida Kobe = assay: as above; details: Pasteurella multocida, brain heart infusion agar medium
Experimental: as §1

[4] = system: A. pleuropneumoniae CH-2(H4024); assay: MIC, Muller Hinton agar with Fields enrichment, 5% CO2 (Test Example 4); details: Actinobacillus pleuropneumoniae, Muller Hinton agar + Fields enrichment 5% by volume
Experimental: (§2) According to the standard method of Japanese Society of Chemotherapy, the amycolamicin was measured for antimicrobial spectrum against bacteria causing pneumonia in domestic livestock other than those listed in Table 3 in the Muller Hinton agar medium supplemented with Fields enrichment (5% by volume) by the multiple dilution method in an atmosphere of 5% by volume CO2.

A. pleuropneumoniae 6H-8 = assay: as above; details: Actinobacillus pleuropneumoniae, 6H8, Muller Hinton agar + Fields enrichment 5% by volume
Experimental: as §2

A. pleuropneumoniae 7H-3 = assay: as above; details: Actinobacillus pleuropneumoniae, 7H3, Muller Hinton agar + Fields enrichment 5% by volume
Experimental: as §2

A. pleuropneumoniae YN = assay: as above; details: Actinobacillus pleuropneumoniae, Muller Hinton agar + Fields enrichment 5% by volume
Experimental: as §2

[5] = system: A. pleuropneumoniae HPT-1; assay: as above; details: Actinobacillus pleuropneumoniae, HPT1, Muller Hinton agar + Fields enrichment 5% by volume
Experimental: as §2

[6] = system: Histophilus somni 23N2359; assay: as above; details: Muller Hinton agar + Fields enrichment 5% by volume
Experimental: as §2

[7] = system: A. pleuropneumoniae SHP-17; assay: as above; details: Actinobacillus pleuropneumoniae, SHP17, Muller Hinton agar + Fields enrichment 5% by volume
Experimental: as §2

[8] = system: A. pleuropneumoniae Shop1421; assay: as above; details: Actinobacillus pleuropneumoniae, Muller Hinton agar + Fields enrichment 5% by volume
Experimental: as §2

[9] = system: Actinobacillus pleuropneumoniae NB001; assay: as above; details: Muller Hinton agar + Fields enrichment 5% by volume
Experimental: as §2

[10] = system: A. pleuropneumoniae O-223; assay: as above; details: Actinobacillus pleuropneumoniae, O223, Muller Hinton agar + Fields enrichment 5% by volume
Experimental: as §2

A. pleuropneumoniae Hi-1 = assay: as above; details: Actinobacillus pleuropneumoniae, HI1, Muller Hinton agar + Fields enrichment 5% by volume
Experimental: as §2

A. pleuropneumoniae CH-1 = assay: as above; details: Actinobacillus pleuropneumoniae, CH1, Muller Hinton agar + Fields enrichment 5% by volume
Experimental: as §2

A. pleuropneumoniae M-1 = assay: as above; details: Actinobacillus pleuropneumoniae, M1, Muller Hinton agar + Fields enrichment 5% by volume
Experimental: as §2

H. infulenzae IID985 = assay: MIC, Muller Hinton agar with sheep blood, 5% CO2 (Test Example 2); details: Haemophilus, Muller Hinton agar + sheep blood 5% by volume
H. infulenzae IID988 = assay: as above; details: Haemophilus, Muller Hinton agar + sheep blood 5% by volume
H. infulenzae IID986 = assay: as above; details: Haemophilus, Muller Hinton agar + sheep blood 5% by volume
[11] = system: Haemophilus infulenzae IID938; assay: as above; details: Muller Hinton agar + sheep blood 5% by volume
S. aureus Smith = assay: MIC, Muller Hinton agar, multiple dilution method (Test Example 1); details: Staphylococcus aureus, Muller Hinton agar medium
Experimental: (§3) According to the standard method of Japanese Society of Chemotherapy, the amycolamicin was measured for antimicrobial spectrum against various microorganisms including drug-resistant bacteria (e.g., methicilline resistant bacteria and vancomycin resistant bacteria) in the Muller Hinton agar medium by the multiple dilution method.

[12] = system: Staphylococcus aureus FDA209P; assay: as above; details: Muller Hinton agar medium
Experimental: as §3

Escherichia coli NIHJ = assay: as above; details: Muller Hinton agar medium
Experimental: as §3

E. coli K-12 = assay: as above; details: Escherichia coli, K12, Muller Hinton agar medium
Experimental: as §3

S. aureus TY-04282(MRSA) = assay: as above; details: Staphylococcus aureus, Muller Hinton agar medium
Experimental: as §3

[13] = system: Ent faecium NCTCI12202(VRE); assay: as above; details: Enterococcus, Muller Hinton agar medium
Experimental: as §3

Ent. faecium JCM 5804 = assay: as above; details: Enterococcus faecium, JCM5804, Muller Hinton agar medium
Experimental: as §3

S. aureus MS9610 = assay: as above; details: Staphylococcus aureus, Muller Hinton agar medium
Experimental: as §3

[14] = system: Enterococcus faecalis JCM 5803; assay: as above; details: JCM5803, Muller Hinton agar medium
Experimental: as §3

[15] = system: Ent. faecium NCTCI12204(VRE); assay: as above; details: Enterococcus faecium, Muller Hinton agar medium
Experimental: as §3

[16] = system: Ent. faecalis NCTC12201(VRE); assay: as above; details: Enterococcus faecalis, Muller Hinton agar medium
Experimental: as §3

S. aureus MRSA No.5 = assay: as above; details: Staphylococcus aureus, Muller Hinton agar medium
Experimental: as §3

[17] = system: Klebsiella pneumoniae PC1602; assay: as above; details: Muller Hinton agar medium
Experimental: as §3

S. aureus MS16526(MRSA) = assay: as above; details: Staphylococcus aureus, Muller Hinton agar medium
Experimental: as §3

[18] = system: Ent. faecalis NCTC12203(VRE); assay: as above; details: Enterococcus faecalis, Muller Hinton agar medium
Experimental: as §3

S. aureus MRSA No.17 = assay: as above; details: Staphylococcus aureus, Muller Hinton agar medium
Experimental: as §3

H. infulenzae IID987 = assay: MIC, Muller Hinton agar with sheep blood, 5% CO2 (Test Example 2); details: Haemophilus, Muller Hinton agar + sheep blood 5% by volume

Measured: MIC

C=C1CCC(OC2CC(O)(C(C)NC(=O)c3[nH]c(C)c(Cl)c3Cl)C(O)C(C)O2)C2C=CC(C)C(C(=O)C3=C(O)C(C(C)C)N(C4OC(C)C(OC(N)=O)C(OC(C)=O)C4OC)C3=O)C12 (stereo not drawn) [amycolamicin]
0.1 µg/mL: [16]
6.25 µg/mL: [17]
0.39 µg/mL: [1] | S. aureus Smith | [12] | S. aureus TY-04282(MRSA) | S. aureus MS9610 | S. aureus MRSA No.5 | S. aureus MS16526(MRSA) | S. aureus MRSA No.17
1.56 µg/mL: [3] | [4] | A. pleuropneumoniae 6H-8 | A. pleuropneumoniae 7H-3 | [5] | [7] | [9] | [10] | A. pleuropneumoniae CH-1
3.13 µg/mL: [8] | A. pleuropneumoniae Hi-1
12.5 µg/mL: Escherichia coli NIHJ | E. coli K-12
0.2 µg/mL: H. infulenzae T196 | [6] | [14] | [18]
0.78 µg/mL: all other assays above
